Where a SMILES comes first, the peptide text is derived from it. Bridges are numbered along the chain shown (N, C = ends). [ ]: non-standard residue; d: D form. The star is where a group is joined. ξ: configuration not given here. Quinoxaline2carbonyl = O=C(c1cnc2ccccc2n1)*; ξDap = NCC(N)C(=O)O

The target of test [1] is Human immunodeficiency virus type 1 reverse transcriptase (Human immunodeficiency virus 1) (UniProt Q72547). Put plainly: Inhibition of HIV1 reverse transcriptase assessed as reduction in [3H]dTTP incorporation by measuring proportional residual activity ratio at 100 uM using poly(rA)/oligo(dT) as template/primer after 30 mins by scintillation counting method.
Test [2] has the same target. As to the kind of experiment: Inhibition of HIV1 reverse transcriptase assessed as reduction in [3H]dTTP incorporation by measuring proportional residual activity ratio at 20 uM using poly(rA)/oligo(dT) as template/primer after 30 mins by scintillation counting method relative to control.
In test [3] the target is T1, Human immunodeficiency virus type 1 reverse transcriptase (Human immunodeficiency virus 1, UniProt Q72547). Put plainly: Inhibition of HIV1 reverse transcriptase assessed as reduction in [3H]dTTP incorporation using poly(rA)/oligo(dT) as template/primer after 30 mins by scintillation counting method.
The target of test [4] is Human immunodeficiency virus type 1 reverse transcriptase (Human immunodeficiency virus 1) (UniProt Q72547). As to the kind of experiment: Inhibition of HIV1 reverse transcriptase assessed as reduction in [3H]dTTP incorporation by measuring proportional residual activity ratio at 300 uM using poly(rA)/oligo(dT) as template/primer after 30 mins by scintillation counting method.

Test [5] deals with T1, Human immunodeficiency virus type 1 reverse transcriptase. Put plainly: Inhibition of HIV1 reverse transcriptase assessed as reduction in [3H]dTTP incorporation using poly(rA)/oligo(dT) as template/primer after 30 mins in presence of Triton-X-100 by scintillation counting method.

Take `NC(=O)[C@@H](Cc1c[nH]c2ccccc12)NC(=O)CCCNC(=O)[C@@H](N)Cc1c[nH]c2ccccc12`: in test [1], the Ratio stood at 0.78.
Regarding `NCC1NC(=O)C[C@@H](C(N)=O)NC(=O)C(CNC(=O)c2cnc3ccccc3n2)NC(=O)CNC(=O)C(CNC(=O)c2cnc3ccccc3n2)NC(=O)CNC(=O)CNC1=O` (stereo partly drawn) ([ξDap]GG[ξDap](Quinoxaline2carbonyl)G[ξDap](Quinoxaline2carbonyl)D-NH2; lactam N-7), the Ratio in test [2] was 0.18.
With `COc1cc(NC(C)CCCN)c2ncccc2c1` (stereo unspecified) [PRIMAQUINE PHOSPHATE], in test [3], the IC50 amounted to 100 µM.
With `NCC1NC(=O)C[C@@H](C(N)=O)NC(=O)CNC(=O)CNC(=O)C(CNC(=O)c2cnc3ccccc3n2)NC(=O)C(CNC(=O)c2cnc3ccccc3n2)NC(=O)CNC1=O` (stereo partly specified) ([ξDap]G[ξDap](Quinoxaline2carbonyl)[ξDap](Quinoxaline2carbonyl)GGD-NH2; lactam N-7), the Ratio in test [2] worked out at 0.38.
The same measure, in the same setting: for `NCC1NC(=O)C[C@@H](C(N)=O)NC(=O)C(CNC(=O)c2cnc3ccccc3n2)NC(=O)CNC(=O)C(CNC(=O)c2cnc3ccccc3n2)NC(=O)C(CNC(=O)c2cnc3ccccc3n2)NC(=O)CNC1=O` (stereo partly drawn) ([ξDap]G[ξDap](Quinoxaline2carbonyl)[ξDap](Quinoxaline2carbonyl)G[ξDap](Quinoxaline2carbonyl)D-NH2; lactam N-7) the value was 0.14; for `NCC1NC(=O)C[C@@H](C(N)=O)NC(=O)CNC(=O)CNC(=O)C(CNC(=O)c2cnc3ccccc3n2)NC(=O)CNC(=O)C(CNC(=O)c2cnc3ccccc3n2)NC1=O` (stereo partly specified) ([ξDap][ξDap](Quinoxaline2carbonyl)G[ξDap](Quinoxaline2carbonyl)GGD-NH2; lactam N-7), 0.11.
On to `O=C(O)c1cnc2ccccc2n1`, for which, in test [3], the IC50 was 320 µM.
On to `O=C(O)c1ccnc2ccccc12`, for which, in test [3], the IC50 is 9600 µM.
As for `NCC1NC(=O)C[C@@H](C(N)=O)NC(=O)CNC(=O)C(CNC(=O)c2cnc3ccccc3n2)NC(=O)C(CNC(=O)c2cnc3ccccc3n2)NC(=O)CNC(=O)C(CNC(=O)c2cnc3ccccc3n2)NC1=O` (stereo partly specified) ([ξDap][ξDap](Quinoxaline2carbonyl)G[ξDap](Quinoxaline2carbonyl)[ξDap](Quinoxaline2carbonyl)GD-NH2; lactam N-7), in test [2], the Ratio was 0.09.
Regarding `NC(=O)[C@H](Cc1c[nH]c2ccccc12)NC(=O)CCNC(=O)[C@@H](N)Cc1c[nH]c2ccccc12`, the Ratio in test [4] stood at 0.25. Moreover, the IC50 in test [3] worked out at 227 µM.
Take `NCC1NC(=O)C[C@@H](C(N)=O)NC(=O)CNC(=O)C(CNC(=O)c2cnc3ccccc3n2)NC(=O)CNC(=O)C(CNC(=O)c2cnc3ccccc3n2)NC(=O)C(CNC(=O)c2cnc3ccccc3n2)NC1=O` (stereo partly specified) ([ξDap][ξDap](Quinoxaline2carbonyl)[ξDap](Quinoxaline2carbonyl)G[ξDap](Quinoxaline2carbonyl)GD-NH2; lactam N-7): the Ratio in test [2] was 0.03.
Still for that read-out and setting: for `NCC1NC(=O)C[C@@H](C(N)=O)NC(=O)C(CNC(=O)c2cnc3ccccc3n2)NC(=O)C(CNC(=O)c2cnc3ccccc3n2)NC(=O)CNC(=O)CNC(=O)C(CNC(=O)c2cnc3ccccc3n2)NC1=O` (stereo partly drawn) ([ξDap][ξDap](Quinoxaline2carbonyl)GG[ξDap](Quinoxaline2carbonyl)[ξDap](Quinoxaline2carbonyl)D-NH2; lactam N-7) the value was 0.13; for `NCC1NC(=O)C[C@@H](C(N)=O)NC(=O)C(CNC(=O)c2cnc3ccccc3n2)NC(=O)CNC(=O)CNC(=O)C(CNC(=O)c2cnc3ccccc3n2)NC(=O)CNC1=O` (stereo partly drawn) ([ξDap]G[ξDap](Quinoxaline2carbonyl)GG[ξDap](Quinoxaline2carbonyl)D-NH2; lactam N-7), 0.13.
Consider `NC(=O)[C@@H](N)Cc1c[nH]c2ccccc12`, for which the half-maximal inhibitory concentration (IC50) in test [3] was determined as 9900 µM; in test [5] it was 15700 µM.
On to `NCC1NC(=O)C[C@@H](C(N)=O)NC(=O)C(CNC(=O)c2cnc3ccccc3n2)NC(=O)C(CNC(=O)c2cnc3ccccc3n2)NC(=O)C(CNC(=O)c2cnc3ccccc3n2)NC(=O)CNC(=O)CNC1=O` (stereo partly drawn) ([ξDap]GG[ξDap](Quinoxaline2carbonyl)[ξDap](Quinoxaline2carbonyl)[ξDap](Quinoxaline2carbonyl)D-NH2; lactam N-7), for which the Ratio in test [2] worked out at 0.16.
For the molecule `NC(=O)[C@@H](Cc1c[nH]c2ccccc12)NC(=O)CCNC(=O)[C@H](N)Cc1c[nH]c2ccccc12`, the Ratio in test [1] stood at 0.39.
On to `NCC1NC(=O)C[C@@H](C(N)=O)NC(=O)C(CNC(=O)c2cnc3ccccc3n2)NC(=O)C(CNC(=O)c2cnc3ccccc3n2)NC(=O)CNC(=O)C(CNC(=O)c2cnc3ccccc3n2)NC(=O)CNC1=O` (stereo partly drawn) ([ξDap]G[ξDap](Quinoxaline2carbonyl)G[ξDap](Quinoxaline2carbonyl)[ξDap](Quinoxaline2carbonyl)D-NH2; lactam N-7), for which the Ratio in test [2] was found to be 0.15.
`COc1ccc2cc([C@H](C)C(=O)O)ccc2c1` [NAPROXEN SODIUM]: the IC50 in test [3] amounted to 6700 µM.
In the case of `NC(=O)[C@H](Cc1c[nH]c2ccccc12)NC(=O)CCCNC(=O)[C@@H](N)Cc1c[nH]c2ccccc12`, the Ratio in test [1] was 0.55.
For the molecule `NCC1NC(=O)C[C@@H](C(N)=O)NC(=O)CNC(=O)C(CNC(=O)c2cnc3ccccc3n2)NC(=O)C(CNC(=O)c2cnc3ccccc3n2)NC(=O)C(CNC(=O)c2cnc3ccccc3n2)NC(=O)CNC1=O` (stereo partly specified) ([ξDap]G[ξDap](Quinoxaline2carbonyl)[ξDap](Quinoxaline2carbonyl)[ξDap](Quinoxaline2carbonyl)GD-NH2; lactam N-7), the Ratio in test [2] came out at 0.08.
Same read-out and setting: the result for `NCC1NC(=O)C[C@@H](C(N)=O)NC(=O)CNC(=O)CNC(=O)CNC(=O)C(CNC(=O)c2cnc3ccccc3n2)NC(=O)C(CNC(=O)c2cnc3ccccc3n2)NC1=O` (stereo partly specified) ([ξDap][ξDap](Quinoxaline2carbonyl)[ξDap](Quinoxaline2carbonyl)GGGD-NH2; lactam N-7) reads 0.3.
Consider `NCC1NC(=O)C[C@@H](C(N)=O)NC(=O)CNC(=O)CNC(=O)C(CNC(=O)c2cnc3ccccc3n2)NC(=O)CNC(=O)CNC1=O` (stereo partly specified) ([ξDap]GG[ξDap](Quinoxaline2carbonyl)GGD-NH2; lactam N-7), for which the Ratio in test [2] is 0.66.
On to `O=C(O)c1cnc2ccccc2c1`, for which the IC50 in test [3] was determined as 2400 µM.
With `NCC1NC(=O)C[C@@H](C(N)=O)NC(=O)C(CNC(=O)c2cnc3ccccc3n2)NC(=O)CNC(=O)CNC(=O)C(CNC(=O)c2cnc3ccccc3n2)NC(=O)C(CNC(=O)c2cnc3ccccc3n2)NC1=O` (stereo partly drawn) ([ξDap][ξDap](Quinoxaline2carbonyl)[ξDap](Quinoxaline2carbonyl)GG[ξDap](Quinoxaline2carbonyl)D-NH2; lactam N-7), in test [2], the Ratio came out at 0.06.
For the molecule `NCC1NC(=O)C[C@@H](C(N)=O)NC(=O)CNC(=O)C(CNC(=O)c2cnc3ccccc3n2)NC(=O)C(CNC(=O)c2cnc3ccccc3n2)NC(=O)CNC(=O)CNC1=O` (stereo partly specified) ([ξDap]GG[ξDap](Quinoxaline2carbonyl)[ξDap](Quinoxaline2carbonyl)GD-NH2; lactam N-7), the Ratio in test [2] was determined as 0.57.
On the same count and under the same terms, the result for `NCC1NC(=O)C[C@@H](C(N)=O)NC(=O)CNC(=O)C(CNC(=O)c2cnc3ccccc3n2)NC(=O)CNC(=O)C(CNC(=O)c2cnc3ccccc3n2)NC(=O)CNC1=O` (stereo partly specified) ([ξDap]G[ξDap](Quinoxaline2carbonyl)G[ξDap](Quinoxaline2carbonyl)GD-NH2; lactam N-7) reads 0.09; that for `NCC1NC(=O)C[C@@H](C(N)=O)NC(=O)C(CNC(=O)c2cnc3ccccc3n2)NC(=O)C(CNC(=O)c2cnc3ccccc3n2)NC(=O)CNC(=O)CNC(=O)CNC1=O` (stereo partly drawn) ([ξDap]GGG[ξDap](Quinoxaline2carbonyl)[ξDap](Quinoxaline2carbonyl)D-NH2; lactam N-7), 0.71.
For `NC(=O)[C@H](Cc1c[nH]c2ccccc12)NC(=O)CCNC(=O)[C@H](N)Cc1c[nH]c2ccccc12`, the Ratio in test [4] amounted to 0.3. The IC50 in test [3] turned out to be 188 µM.

The values are drawn from ChEMBL document CHEMBL4371080, “Multiple weak intercalation as a strategy for the inhibition of polymerases” (Bioorg Med Chem Lett, 2019).
